Measurements: article PMC9415116, “Regionally selective cardiovascular responses to adenosine A2A and A2B receptor activation” (The FASEB Journal, 2022)

Tests used:
rat Nluc-A2AR = target: T1, rat Nluc-A2AR (Rattus norvegicus, UniProt P30543, M1L); assay: NanoBRET competition binding with CA200645, intact HEK293T cells; type: cell-based; conditions: read-out: Nluc-rat A2A (pKD or pKi) (converted)
T1 construct: gene Adora2a; internal BamHI site removed (silent by primer); transient in intact HEK293T cells
T1 sequence (P30543 whole entry M1L): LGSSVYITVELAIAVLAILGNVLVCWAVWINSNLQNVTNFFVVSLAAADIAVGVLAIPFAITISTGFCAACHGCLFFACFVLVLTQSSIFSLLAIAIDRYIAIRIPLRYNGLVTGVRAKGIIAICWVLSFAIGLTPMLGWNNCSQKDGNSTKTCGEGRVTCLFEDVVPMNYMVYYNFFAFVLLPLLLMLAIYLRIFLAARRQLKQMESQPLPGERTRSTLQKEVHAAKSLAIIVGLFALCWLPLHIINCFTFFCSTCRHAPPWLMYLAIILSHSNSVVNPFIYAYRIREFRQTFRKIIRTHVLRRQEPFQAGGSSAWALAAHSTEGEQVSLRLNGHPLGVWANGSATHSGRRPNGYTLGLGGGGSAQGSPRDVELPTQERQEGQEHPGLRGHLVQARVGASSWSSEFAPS
From the text: NanoBRET competition binding with CA200645, intact HEK293T cells on rat Nluc-A2AR

rat Nluc-A2BR = target: T2, rat Nluc-A2BR (Rattus norvegicus, UniProt P29276, M1L); assay: as above; type: cell-based; conditions: for Ki: read-out: Nluc-rat A2B (pKD or pKi) (converted)
T2 construct: gene Adora2b; internal XhoI site removed (silent by primer); transient in intact HEK293T cells
T2 sequence (P29276 1-332 M1L): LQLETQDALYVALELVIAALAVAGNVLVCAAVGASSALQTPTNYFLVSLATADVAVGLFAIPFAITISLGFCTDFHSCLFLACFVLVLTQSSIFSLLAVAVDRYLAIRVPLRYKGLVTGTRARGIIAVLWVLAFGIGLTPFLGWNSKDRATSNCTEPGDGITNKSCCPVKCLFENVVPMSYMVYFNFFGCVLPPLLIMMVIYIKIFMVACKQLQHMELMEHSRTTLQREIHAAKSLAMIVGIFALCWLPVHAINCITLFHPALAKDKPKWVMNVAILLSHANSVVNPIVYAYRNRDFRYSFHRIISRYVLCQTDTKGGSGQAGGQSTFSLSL
From the text: NanoBRET competition binding with CA200645, intact HEK293T cells on rat Nluc-A2BR

Row | Structure (SMILES) | Ki (rat Nluc-A2AR) | Ki (rat Nluc-A2BR) | Nluc-rat A2B (pKD or pKi) (rat Nluc-A2BR; […] CA200645, HBSS pH […] BSA, […] DMSO, […] °C, […] h, Cheng-Prusoff)
1 | CCCn1c(=O)[nH]c2nc(-c3ccc(S(=O)(=O)O)cc3)[nH]c2c1=O [PSB 1115, 4‐(2,3,6,7‐Tetrahydro‐2,6‐dioxo‐1‐propyl‐1H‐purin‐8‐yl)‐benzenesulfonic acid] | 2880 nM | 537 nM | –
2 | N#Cc1c(N)nc(SCC(N)=O)c(C#N)c1-c1ccc(OCC2CC2)cc1 [BAY 60‐6583, 2‐[[6‐Amino‐3,5‐dicyano‐4‐[4‐(cyclopropylmethoxy)phenyl]‐2‐pyridinyl]thio]‐acetamide] | – | – | 6.33 ± 0.03
3 | CCCn1c(=O)[nH]c2nc(-c3ccc(S(=O)(=O)N4CCN(c5ccc(Cl)cc5)CC4)cc3)[nH]c2c1=O [PSB 603] | 490 nM | 2 nM | –
4 | Nc1nc2c(cnn2CCc2ccccc2)c2nc(-c3ccco3)nn12 [SCH 58261, 2‐(2‐Furanyl)‐7‐(2‐phenylethyl)‐7H‐pyrazolo[4,3‐e][1,2,4]triazolo[1,5‐c]pyrimidin‐5‐amine] | – | 708 nM | –
